# Assay results taken from patent US10285982B2, “3-(1H-pyrrolo[2,3-B]pyridin-2-yl)-1H-pyrazolo[3,4-C]pyridines and therapeutic uses thereof” (Samumed, LLC, priority 2015, dated 2019).
# Legend:
# Assay type in all cases: cell-based
# [1] = tested on: primary human fibroblasts derived from IPF patients (LL29 cells) treated with TGF-β1; experiment: Inhibition of fibrotic process, αSMA staining in TGF-β1 treated LL29 fibroblasts; settings: Fibroblast, 96 h, % αSMA positive LL29 cells, TGF-β1 20 ng/mL, 4 days
# Text: Representative compounds were screened using primary human fibroblasts (derived from IPF patients) treated with TGF-β1 to determine their ability to inhibit the fibrotic process.
# Primary human fibroblasts derived from IPF patients (LL29 cells) [^1Xiaoqiu Liu, et. al., “Fibrotic Lung Fibroblasts Show Blunted Inhibition by cAMP Due to Deficient cAMP Response Element-Binding Protein Phosphorylation”, Journal of Pharmacology and Experimental Therapeutics (2005), 315(2), 678-687; ^2Watts, K. L., et. al., “RhoA signaling modulates cyclin D1 expression in human lung fibroblasts; implications for idiopathic pulmonary fibrosis”, Respiratory Research (2006), 7(1), 88] were obtained from American Type Culture Collection (ATCC) and expanded in F12 medium supplemented with 15% Fetal Bovine Serum and Penicillin/Streptomycin.
# Each compound was dissolved in DMSO as a 10 mM stock and used to prepare compound source plates. Serial dilution (1:2, 11-point dose-response curves from 10 μM to 1.87 nM) and compound transfer was performed using the ECHO 550 (Labcyte, Sunnyvale, Calif.) into 384-well clear bottom assay plates (Greiner Bio-One) with appropriate DMSO backfill for a final DMSO concentration of 0.1%. LL29 cells are plated at 1,500 cells/well in 80 μL/well F12 medium supplemented with 1% Fetal Bovine Serum. One hour after addition of the cells, TGF-β1 (Peprotech; 20 ng/mL) was added to the plates to induce fibrosis (ref. 1 and 2 above). Wells treated with TGF-β1 and containing DMSO were used as controls. Cells were incubated at 37° C. and 5% CO2 for 4 days. Following incubation for 4 days, SYTOX green nucleic acid stain (Life Technologies [Thermo Fisher Scientific]) was added to the wells at a final concentration of 1 μM and incubated at room temperature for 30 min. Cells were then fixed using 4% formaldehyde (Electron Microscopy Sciences), washed 3 times with PBS followed by blocking and permeabilization using 3% Bovine Serum Albumin (BSA; Sigma) and 0.3% Triton X-100 (Sigma) in PBS. Cells were then stained with antibody specific to α-smooth muscle actin (αSMA; Abcam) (ref. 1 and 2 above) in 3% Bovine Serum Albumin (BSA; Sigma) and 0.3% Triton X-100 (Sigma) in PBS, and incubated overnight at 4° C. Cells were then washed 3 times with PBS, followed by incubation with Alexa Flor-647 conjugated secondary antibody (Life Technologies [Thermo Fisher Scientific]) and DAPI at room temperature for 1 hour. Cells were then washed 3 times with PBS and plates were sealed for imaging. αSMA staining was imaged by excitation at 630 nm and emission at 665 nm and quantified using the Compartmental Analysis program on the CellInsight CX5 (Thermo Scientific). Dead or apoptotic cells were excluded from analysis based on positive SYTOX green staining. % of total cells positive for αSMA were counted in each well and normalized to the average of 11 wells treated with TGF-β1 on the same plate using Dotmatics' Studies Software. The normalized averages (fold change over untreated) of 3 replicate wells for each compound concentration were used to create dose-responses curves and EC50 values were calculated using non-linear regression curve fit in the Dotmatics' Studies Software. For EC50 of >10 μM, the percent inhibition at 10 μM is provided.
# [2] = tested on: Wnt activity (Sp5-Luc reporter, SW480 colon carcinoma cells); experiment: Wnt activity screening assay, Sp5-Luc reporter gene in SW480 cells; settings: Homo sapiens; for EC50: overnight incubation
# Text: The screening assay for Wnt activity is described as follows. Reporter cell lines can be generated by stably transducing cancer cell lines (e.g., colon cancer) or primary cells (e.g., IEC-6 intestinal cells) with a lentiviral construct that includes a Wnt-responsive promoter driving expression of the firefly luciferase gene.
# SW480 colon carcinoma cells were transduced with a lentiviral vector expressing luciferase with a human Sp5 promoter consisting of a sequence of eight TCF/LEF binding sites. SW480 cells stably expressing the Sp5-Luc reporter gene and a hygromycin resistance gene were selected by treatment with 150 μg/mL of hygromycin for 7 days. These stably transduced SW480 cells were expanded in cell culture and used for all further screening activities. Each compound was dissolved in DMSO as a 10 mM stock and used to prepare compound source plates. Serial dilution (1:3, 10-point dose-response curves starting from 10 μM) and compound transfer was performed using the ECHO 550 (Labcyte, Sunnyvale, Calif.) into 384-well white solid bottom assay plates (Greiner Bio-One) with appropriate DMSO backfill for a final DMSO concentration of 0.1%. For Sp5-Luc reporter gene assays, the cells were plated at 4,000 cells/well in 384-well plates with medium containing 1% fetal bovine serum and incubated overnight at 37° C. and 5% CO2. Following incubation, 20 μl of BrightGlo luminescence reagent (Promega) was added to each well of the 384-well assay plates. The plates were placed on an orbital shaker for 2 min and then luminescence was quantified using the Envision (Perkin Elmer) plate reader. Readings were normalized to DMSO only treated cells, and normalized activities were utilized for EC50 calculations using the dose-response log (inhibitor) vs. response-variable slope (four parameters) nonlinear regression feature available in GraphPad Prism 5.0 (or Dotmatics). For EC50 of >10 μM, the percent inhibition at 10 μM is provided.
# SW480 colon cancer cells = experiment: Cell viability assay (CellTiter-Blue); settings: Homo sapiens, 96 h, four days
# Method: Representative compounds were screened using the following assay procedure to assess the effect on cell viability as described below.
# Each compound was dissolved in DMSO as a 10 mM stock and used to prepare compound source plates. Serial dilution (1:3, 8-point dose-response curves from 10 μM to 0.0045 μM) and compound transfer was performed using the ECHO 550 (Labcyte, Sunnyvale, Calif.) into 96-well clear bottom, black-walled plates (Corning-Costar).
# Approximately 2×10^3 SW480 colon cancer cells were seeded into each well and allowed to incubate in the presence or absence of compound for four days at 37° C./5% CO2. Eight replicates of DMSO-treated cells served as controls and cells treated with compound were performed in duplicate.
# After incubation, 20 μL of CellTiter-Blue (Promega) was added to each well allowed to incubate for approximately 3 hours. This reagent was a buffered solution which contains resazurin, metabolically active cells were able to reduce rezarurin (blue) into resorufin (pink) which was highly fluorescent. This measured fluorescence was used as a readout for cell viability.
# After incubation, the plates were read at Ex 560 nm Em 590 nm (Cytation 3, BioTek). Dose-response curves were generated and EC50 concentration values were calculated using non-linear regression curve fit in the GraphPad Prism (San Diego, Calif.) or Dotmatics' Studies Software (Bishops Stortford, UK). For EC50 of >10 μM, the percent inhibition at 10 μM is provided.
# IL-6 (THP-1 cells) = experiment: IL-6 inhibition in LPS-stimulated THP-1 cells (HTRF); settings: Homo sapiens; IL-6 in THP-1 cells, LPS 500 ng/mL, 22 hours
# Method: Human monocyte cell line (THP-1 cells; Catalog # TIB-202, ATCC, Manassas, Va.) were cultured in Roswell Park Memorial Institute (RPMI) 1640 Medium (Catalog #21870-100, Buffalo, N.Y.) with 1% L-glutamine, 1% HEPES, 1% Sodium Pyruvate, 2% Sodium Bicarbonate supplemented with 100 units/mL penicillin, 50 μg/mL streptomycin, 2-mercaptoethanol (0.05 mM) [basal medium] and 10% fetal bovine serum (Catalog #16140089, Life Technologies, Carlsbad, Calif.) at 37° C. and 5% CO2.
# THP-1 cells were cultured in basal media with 1% FBS for 24 hours before the start of the assay. Each compound was dissolved in DMSO as a 10 mM stock and used to prepare compound source plates. Serial dilution (1:3, 10-point dose-response curves starting from 10 μM) and compound transfer was performed using the ECHO 550 (Labcyte, Sunnyvale, Calif.) into 384-well white low volume assay plates (Greiner Bio-One) with appropriate DMSO backfill for a final DMSO concentration of 0.1%. THP-1 cells were plated at 5000 cells/well in the 384-well plates and incubated at 37° C. for 2 h. 500 ng/mL of LPS was added after 2 hours and cells were incubated for another 22 hours at 37° C. Plates were spun in a centrifuge for 1 minute at […] and a mixture of anti-IL6 XL665, and anti-IL6 Cryptate diluted in reconstitution buffer (Cisbio Inc.) was added to each well. Following incubation for 3 hrs at room temperature, Homogeneous Time-Resolved Fluorescence (HTRF) was measured using the Envision (Perkin Elmer) at 665 nm and […]. The ratio of fluorescence at 665 nm to 620 nm was used as a readout for IL6 quantification. All samples were processed in duplicate. Readings were normalized to DMSO treated cells and normalized activities were utilized for EC50 calculations using the dose-response log (inhibitor) vs. response-variable slope (four parameters) nonlinear regression feature available in GraphPad Prism 5.0 (or Dotmatics). For EC50 of >10 μM, the percent inhibition at 10 μM is provided.
smiles,measurement,setting,value
"Fc1ccc(-c2ccnc3[nH]c(-c4n[nH]c5cnc(-c6cncc(CN7CCC(F)(F)C7)c6)cc45)cc23)cc1 [Compound 54, 5-(5-((3,3-Difluoropyrrolidin-1-yl)methyl)pyridin-3-yl)-3-(4-(4-fluorophenyl)-1H-pyrrolo[2,3-b]pyridin-2-yl)-1H-pyrazolo[3,4-c]pyridine]",EC50,[1],1110 nM
same,inhibition at 10 µM,"[2]; at 10 μM, given where EC50 >10 μM, read-out: percent inhibition at 10 μM",28.1%
same,EC50,[2],> 10000 nM
same,EC50,SW480 colon cancer cells,1400 nM
same,EC50,IL-6 (THP-1 cells),2050 nM
"O=C(Nc1cncc(-c2cc3c(-c4cc5c(-c6ccoc6)ccnc5[nH]4)n[nH]c3cn2)c1)C1CC1 [Compound 328, N-(5-(3-(4-(Furan-3-yl)-1H-pyrrolo[2,3-b]pyridin-2-yl)-1H-pyrazolo[3,4-c]pyridin-5-yl)pyridin-3-yl)cyclopropanecarboxamide]",EC50,[1],37 nM
same,EC50,[2],121 nM
same,EC50,SW480 colon cancer cells,107 nM
same,EC50,IL-6 (THP-1 cells),533 nM
"CC(C)(C)CC(=O)Nc1cncc(-c2cc3c(-c4cc5c(-c6ccc(F)cc6)ccnc5[nH]4)n[nH]c3cn2)c1 [Compound 44, N-(5-(3-(4-(4-Fluorophenyl)-1H-pyrrolo[2,3-b]pyridin-2-yl)-1H-pyrazolo [3,4-c]pyridin-5-yl)pyridin-3-yl)-3,3-dimethylbutanamide]",EC50,[1],311 nM
same,EC50,[2],144 nM
same,EC50,SW480 colon cancer cells,1160 nM
same,EC50,IL-6 (THP-1 cells),4400 nM
